From patent US20220089599A1, “ALKYNYL NICOTINAMIDE COMPOUNDS AS KINASE INHIBITORS” (PURDUE RESEARCH FOUNDATION, priority 2018, published 2022)
Where two headings read alike, the source gives them in different places.

Legend:
KCL22 = assay type: cell-based; details: Homo sapiens
K562 = assay type: cell-based; details: Homo sapiens
KCL22-IR = assay type: cell-based; details: read-out: IC50 KCL22-IR
MOLM14 = assay type: cell-based; details: Homo sapiens
MOLM14-D835Y = assay type: cell-based
MOLM14-F691L = assay type: cell-based; details: Homo sapiens
c-SRC = c-SRC (Homo sapiens, UniProt P12931); assay: Kinase IC50 at Reaction Biology; assay type: biochemical
H520 = assay type: cell-based; details: Homo sapiens
MV-4-11 = assay type: cell-based; details: Homo sapiens
MOLM13-res = assay type: cell-based; details: read-out: IC50 MOLM13-res
LC2/Ad = assay: cells; details: Homo sapiens, LC-2-ad, read-out: IC50 LC2/Ad
[1] = KCL-22, cell activities of other nicotinamide compounds, KCL22, read-out: IC50 KCL22
[2] = cell activities of other nicotinamide compounds, K562, read-out: IC50 K562
[3] = cell activities of other nicotinamide compounds, KCL22-IR
[4] = cell activities of other nicotinamide compounds, MOLM-14, read-out: IC50 MOLM-14
[5] = Homo sapiens, cell activities of other nicotinamide compounds, MOLM-14 (ITD, D85Y), read-out: IC50 MOLM-14 (ITD, D85Y)
[6] = cell activities of other nicotinamide compounds, MOLM-14 (ITD, F691L), read-out: IC50 MOLM-14 (ITD, F691L)

Chain of c-SRC (P12931 whole entry): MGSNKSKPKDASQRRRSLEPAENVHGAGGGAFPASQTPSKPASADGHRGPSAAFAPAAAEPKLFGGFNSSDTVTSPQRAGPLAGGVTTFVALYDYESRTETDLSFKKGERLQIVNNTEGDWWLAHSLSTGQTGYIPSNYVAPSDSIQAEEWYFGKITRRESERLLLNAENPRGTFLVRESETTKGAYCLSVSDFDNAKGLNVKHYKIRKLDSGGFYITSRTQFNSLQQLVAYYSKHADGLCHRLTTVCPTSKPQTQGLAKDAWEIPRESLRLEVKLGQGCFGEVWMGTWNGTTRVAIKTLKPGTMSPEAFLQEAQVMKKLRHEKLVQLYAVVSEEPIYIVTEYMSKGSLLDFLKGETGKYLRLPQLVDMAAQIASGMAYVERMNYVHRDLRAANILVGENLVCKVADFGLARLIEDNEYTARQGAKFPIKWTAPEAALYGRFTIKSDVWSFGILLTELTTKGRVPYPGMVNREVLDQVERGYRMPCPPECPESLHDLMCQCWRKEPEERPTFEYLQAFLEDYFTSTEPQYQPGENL

Structure (SMILES) | IC50 (KCL22; [1]) [nM] | IC50 (K562; [2]) [nM] | IC50 (KCL22-IR; [3]) [nM] | IC50 (MOLM14; [4]) [nM] | IC50 (MOLM14-D835Y; [5]) [nM] | IC50 (MOLM14-F691L; [6]) [nM] | also measured
CN1CCN(Cc2ccc(NC(=O)c3cncc(C#Cc4cnc5ncccn45)c3)cc2C(F)(F)F)CC1 [HSL382, 5-(imidazo[1,2-a]pyrimidin-3-ylethynyl)-N-(4-((4-methylpiperazin-1-yl)methyl)-3-(trifluoromethyl)phenyl)nicotinamide] | > 100 | > 100 | > 100 | 5.15 ± 0.09 | > 100 | > 100 | –
CN1CCN(Cc2ccc(C(=O)Nc3cncc(C#Cc4cnc5cccnn45)c3)cc2C(F)(F)F)CC1 [HSL338, N-(5-(imidazo[1,2-b]pyridazin-3-ylethynyl)pyridin-3-yl)-4-((4-methylpiperazin-1-yl)methyl)-3-(trifluoromethyl)benzamide] | 1.4 ± 0.02 | 0.45 ± 0.002 | 4.2 ± 0.04 | 0.075 ± 0.0005 | 7.4 ± 0.04 | – | –
CN1CCN(Cc2ccc(NC(=O)c3cncc(C#Cc4cnc5cccnn45)c3)cc2C(F)(F)F)CC1 [HSN748, 5-(imidazo[1,2-b]pyridazin-3-ylethynyl)-N-(4-((4-methylpiperazin-1-yl)methyl)-3-(trifluoromethyl)phenyl)nicotinamide] | – | – | – | – | – | – | IC50 (c-SRC; [ATP] = 100 μM, read-out: IC50 c-SRC): > 1000 nM; IC50 (c-SRC; read-out: IC50 c-Src kinase): > 1000 nM; IC50 (KCL22; KCL-22, growth inhibition, KCL22 cell line, read-out: IC50 KCL22): 1.32 nM; IC50 (K562; growth inhibition, K562 (ABL1) cell line, read-out: IC50 K562): 0.8 nM; IC50 (KCL22-IR; growth inhibition, KCL22-IR cell line): 0.23 nM; IC50 (MOLM14; MOLM-14, growth inhibition, MOLM14 cell line, read-out: IC50 MOLM14): 0.05 nM; IC50 (MOLM14-D835Y; growth inhibition, quizartinib-resistant AML cell line, read-out: IC50 MOLM14-D835Y): 0.69 nM; IC50 (H520; NCI-H520, growth inhibition, H520 cell line, read-out: IC50 H520): 839 nM; IC50 (MOLM14-F691L; MOLM-14, growth inhibition, gilteritinib-resistant AML cell line Molm14 (ITD, F691L), read-out: IC50 MOLM14-F691L): 0.18 nM; IC50 (MV-4-11; MV4-11, growth inhibition, MV-4-11 (FLT3) cell line, read-out: IC50 MV-4-11): 0.07 nM; IC50 (MOLM13-res; growth inhibition, MOLM13-res cell line): 1.73 nM
CN1CCN(Cc2ccc(NC(=O)c3cncc(C#Cc4cnc5ccccn45)c3)cc2C(F)(F)F)CC1 [HSL381, 5-(imidazo[1,2-a]pyridin-3-ylethynyl)-N-(4-((4-methylpiperazin-1-yl)methyl)-3-(trifluoromethyl)phenyl)nicotinamide] | 0.89 ± 0.005 | 0.57 ± 0.003 | 4.24 ± 0.05 | 0.04 ± 0.006 | 7.12 ± 0.06 | 0.55 ± 0.06 | –
Cc1ccc(C(=O)Nc2ccc(CN3CCN(C)CC3)c(C(F)(F)F)c2)cc1C#Cc1cnc2cccnn12 [Ponatinib, reference compound] | – | – | – | – | – | – | IC50 (KCL22; KCL-22, read-out: IC50 KCL22): 0.14 nM; IC50 (K562; K562, read-out: IC50 K562): 0.6 nM; IC50 (KCL22-IR): 0.66 nM; IC50 (MOLM14; MOLM-14, read-out: IC50 MOLM14): 0.45 nM; IC50 (MOLM14-D835Y; read-out: IC50 MOLM14-D835Y): 52.6 nM; IC50 (H520; NCI-H520, read-out: IC50 H520): 128 nM; IC50 (LC2/Ad): 35.1 nM; IC50 (MOLM14-F691L; MOLM-14, read-out: IC50 MOLM14-F691L): 6.8 nM; IC50 (MV-4-11; MV4-11, read-out: IC50 MV-4-11): 0.09 nM; IC50 (MOLM13-res): 24.1 nM
CN1CCN(Cc2ccc(NC(=O)c3cncc(C#Cc4cnc5cnccn45)c3)cc2C(F)(F)F)CC1 [HSL385, 5-(imidazo[1,2-a]pyrazin-3-ylethynyl)-N-(4-((4-methylpiperazin-1-yl)methyl)-3-(trifluoromethyl)phenyl)nicotinamide] | 2.62 ± 0.06 | 0.94 ± 0.002 | 17.2 ± 0.8 | 0.15 ± 0.007 | 28.5 ± 0.9 | – | –
CN1CCN(Cc2ccc(NC(=O)c3cncc(C#Cc4cnc5ccnn5c4)c3)cc2C(F)(F)F)CC1 [HSL412, N-(4-((4-methylpiperazin-1-yl)methyl)-3-(trifluoromethyl)phenyl)-5-(pyrazolo[1,5-a]pyrimidin-6-ylethynyl)nicotinamide] | 28.1 ± 0.4 | 28.1 ± 0.6 | – | – | > 100 | 17.8 ± 1.3 | –
Cc1ncc(C(=O)Nc2ccc(CN3CCN(C)CC3)c(C(F)(F)F)c2)cc1C#Cc1cnc2cccnn12 [HSL420, 5-(imidazo[1,2-b]pyridazin-3-ylethynyl)-6-methyl-N-(4-((4-methylpiperazin-1-yl)methyl)-3-(trifluoromethyl)phenyl)nicotinamide] | 0.06 ± 0.002 | 0.059 ± 0.002 | 0.46 ± 0.01 | – | 2.24 ± 0.08 | 0.57 ± 0.004 | –
CN1CCN(Cc2ccc(NC(=O)c3cncc(C#Cc4cncc5nccn45)c3)cc2C(F)(F)F)CC1 [HSL407, 5-(imidazo[1,2-a]pyrazin-5-ylethynyl)-N-(4-((4-methylpiperazin-1-yl)methyl)-3-(trifluoromethyl)phenyl)nicotinamide] | 2.93 ± 0.04 | 1.83 ± 0.02 | 49.7 ± 2.5 | – | 42.9 ± 0.7 | 6.87 ± 0.13 | –
